Reference: the METLIN SMRT retention time set (Domingo-Almenara et al. 2019)

assay: gradient 5% acetonitrile 3 min, to 50% in 2 min, to 85% in 15 min, held 3 min, 100 µL/min; conditions: column: Zorbax Extend-C18 2.1 x 50 mm; eluents: water / acetonitrile, 0.1% formic acid
Summary of the method: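 Data were gathered over 3 months by HPLC coupled to a quadrupole time-of-flight mass spectrometer, operated in positive and negative ionization mode. Mixtures of ~100 pure standards ran on a Zorbax Extend-C18 column (2.1 × 50 mm, 1.8 μm) at 100 μL/min, with water and acetonitrile each containing 0.1% formic acid and dead and dwell volumes of 40 μL and 900 μL. Retention time was read from adduct peaks picked by computer and checked manually.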

SMILES	RP-LC retention time
CCc1ccc(CNC(=O)c2cc3c(=O)n(C)c(=O)n(C)c3s2)cc1	830 s
Nc1ccc(Oc2ccc(N)c([N+](=O)[O-])c2)cc1[N+](=O)[O-]	899 s
COCCN1CC(CO)C2(CCN(Cc3ccc(Cl)cc3F)CC2)C1 (centres undefined)	538 s
O=C(c1ccc(F)c(F)c1)N1CCN(S(=O)(=O)c2cc3c4c(c2)CCC(=O)N4CCC3)CC1	807 s
O=C(NCc1ccc(F)cc1)Nc1c(-c2ccccc2)nc2ccccn12	639 s
CC1(C)CCC[C@]2(C)[C@H]3CC(=O)O[C@]3(C)CC[C@@H]12	1220 s
C#CCSc1nc2ccccc2c2nc(-c3cccnc3)nn12	998 s
Cc1cc(S(=O)(=O)N2CC=C(c3cn(C)c4ncccc34)CC2)ccc1F	1050 s
CCn1c(N2CCC(C(=O)NCCCOC)CC2)cc(=O)n(C)c1=O	610 s
CC1CCN(C(=O)Cc2nnc(-c3ccccc3)o2)CC1	770 s
CCn1c(=O)c(C)nc2cc(-c3noc(-c4ccc(Br)o4)n3)ccc21	1040 s
Cc1ccc2cc(CCC(=O)NCCCN(C)C)c(=O)[nH]c2c1	577 s
CCc1noc(NC(C)=O)c1-c1ccc(C)c(S(=O)(=O)N2CCN(C(=O)c3ccco3)CC2)c1	758 s
CCN1CCCCc2cc(C(=O)NCCN3CCCCC3C)sc21 (centres undefined)	698 s
CS(=O)(=O)N1CC(F)(F)C[C@H]1c1nc(-c2ccccc2)no1	858 s
Cn1cc(-c2cc3n(n2)CCC(=O)N3CCCC(=O)Nc2ccccc2F)c2ccccc21	844 s
CCc1noc(NC(C)=O)c1-c1ccc(OC)c(S(=O)(=O)Nc2cc(Cl)ccc2C)c1	870 s
CCCn1cc(CCNS(=O)(=O)c2ccc(Cl)cc2)c2cccnc21	891 s
Cn1nc2n(c1=O)CCN(C(=O)c1cc(C3CC3)[nH]n1)CC2	575 s
CCCNC(=O)N1CCC(N2CCN(Cc3ccccc3)C(=O)C2=O)CC1	653 s
CN(C)c1nccnc1OC1CCN(C(=O)c2ccn[nH]2)C1 (centres undefined)	604 s
O=C(c1cc(F)ccc1F)N1CCN(c2cc(-c3ccc(F)cc3)[nH]n2)CC1	807 s

SMILES	RP-LC retention time
COCCCNC(=O)C1c2ccccc2C(=O)N1Cc1ccccc1F (centres undefined)	708 s
CC(=O)n1nc(-c2ccc(C)c(C)c2)nc1N	813 s
Cc1sc2cc(C(=O)O)[nH]c2c1C(=O)N1CCOCC1	622 s
CCN(CC)CCc1nc(-c2ccccc2)no1	674 s
O=C1Nc2ccccc2SC1C(=O)N1CCC(C(=O)N2CCN(C3CCCCC3)CC2)CC1 (centres undefined)	590 s
NC(=O)c1ccc2c(c1)n(Cc1ccccc1)c(=O)c1ccnn12	674 s
Cc1sc2ccn(CC(C)C)c(=O)c2c1C(=O)NCc1ccc(F)cc1F	983 s
Cc1ccc(-n2cc(C(=O)O)nn2)cc1F	684 s
CCN(CCN(C)C)C(=O)c1cc2c(s1)-c1ccc(Cl)cc1S(=O)(=O)C2	660 s
COCCNC(=O)C1c2ccccc2CC(=O)N1C(C)C (centres undefined)	648 s
Cc1cc(NC(=O)Cn2ccn3nc(-c4ccccc4)c(CO)c3c2=O)n[nH]1	644 s
O=C(c1ccc(OC(F)(F)F)cc1)N1C[C@@H]2C[C@H]1C[C@@H]2NS(=O)(=O)c1ccccc1	884 s
CCCCC(=O)N(CC)c1nc(-c2ccccc2)cs1	1330 s
Cc1sc2ncnc(N3CCCC(C)C3)c2c1C(=O)Nc1cc(F)ccc1F (centres undefined)	1220 s
Cc1cc(N2CCN(c3ccccn3)CC2)n2nc(-c3ccco3)nc2n1	584 s
Cc1cnc(C(=O)NC2C[C@H]3CC[C@@H](C2)N3C(=O)C2CCCCCC2)cn1 (some centres undefined)	733 s
CCN(CC)CCNC(=O)C1c2ccccc2C(=O)N(C)C1c1cccs1 (centres undefined)	611 s
CC(NC(=O)C1CCN(C(=O)c2ncn3c2COC(c2ccccc2)C3)CC1)c1ccccc1 (centres undefined)	754 s
CN1CCN(c2nc(C(=O)NC3CCN(c4ccc(=O)n(C)n4)CC3)cs2)CC1	566 s
CCC(NC(=O)c1cn(C)c2ncccc12)c1cccs1 (centres undefined)	800 s
NC(=O)Cc1csc(NC(=O)c2coc(NC(=O)c3ccccc3)n2)n1	586 s
O=C1C(O)=C(S(=O)(=O)c2ccccc2)C(c2ccccc2)N1Cc1ccccc1 (centres undefined)	947 s

Second part, the compound after the results:

RP-LC retention time	SMILES
759 s	CCOC(=O)c1ccc(NS(=O)(=O)c2cc3n(c2)CCCN(CC)C3=O)cc1
1010 s	COc1ccc(Cc2noc(Cc3nnc(-c4ccc(Cl)cc4)o3)n2)cc1
608 s	COc1cccc(OC)c1C(=O)NCCNC(=O)c1ccc(NC(=O)C2CC2)cc1
668 s	CCn1ccc2cc(S(=O)(=O)N3CCCC(C(=O)NCCN4CCCCC4)C3)ccc21 (centres undefined)
1180 s	COc1cccc(-c2nc(-c3ccc(S(=O)(=O)N4CCCC4)cc3)no2)c1
819 s	Cc1ccc(CNC(=O)C2(C)Cn3cnc(C(=O)NC4CCCCC4)c3C(=O)N2C2CC2)cc1 (centres undefined)
907 s	CSc1ccc(NC(=O)C2c3ccccc3Oc3ccccc32)nn1
971 s	Cc1cc(NC(=O)CN2C(=O)C(C(=O)N3CCCC3)Sc3ccccc32)ccc1Br (centres undefined)
804 s	Cc1ccc(NC(=O)C2CCN(c3nc(C4CCC4)nc4csc(C)c34)CC2)c(C)c1
760 s	CCOc1ccc(CC(=O)Nc2cc(-c3cccnc3)no2)cc1
690 s	CCc1nnc2cc(N3CCN(S(=O)(=O)c4cccc(F)c4)CC3)cnn12
785 s	O=C(Nc1ccc(F)cc1)C1CC(=O)N(CCc2c[nH]c3ccc(F)cc23)C1 (centres undefined)
855 s	CC1=C(c2ccc(C)c(C)c2)S(=O)(=O)N=C1N1CCC(C(=O)NC(C)Cc2ccco2)CC1 (centres undefined)
1070 s	Cc1ccc(N2CC(c3nc(-c4ccc5c(c4)nnn5C4CCCC4)no3)CC2=O)cc1 (centres undefined)
830 s	COc1ccc(-c2c(C)noc2NC(C)=O)cc1S(=O)(=O)N(C)c1ccc(C)cc1
819 s	Cc1noc2nc(CCC(=O)NCc3ccc(Cl)cc3)nc(N3CCCC3)c12
700 s	COc1ccc(NC(=O)N(Cc2nnc3n2CCCCC3)c2cccc(OC)c2)cc1
758 s	O=C(Cc1cccs1)NC1CCCN(c2cc(-c3ccccc3)[nH]n2)C1 (centres undefined)
701 s	CC1=C(c2ccc(Cl)cc2)S(=O)(=O)N=C1N1CCCN(C(=O)c2cccnc2)CC1
640 s	O=C(NC1CCN(Cc2ccccc2)CC1)c1cc2n(n1)CCCN(Cc1ccccc1)C2=O
720 s	COc1cc(-c2nc3ccc(Cl)cn3c2Nc2ccccc2C)ccc1O
834 s	O=C(Cn1cccc(-c2nc(-c3ccc(F)cc3)no2)c1=O)NC1CCCCC1
907 s	Cc1ccc(S(=O)(=O)N2CCC(CC(=O)NC(C)Cc3ccco3)CC2)cc1 (centres undefined)

RP-LC retention time	SMILES
655 s	CCN1CCN(c2nc3cc(C(=O)OC)ccc3c(=O)n2-c2ccc(F)c(Cl)c2)CC1
660 s	CCOc1ccc(NC(=O)N2CC(=O)N(CC(=O)N3CCC(C(N)=O)CC3)c3ccccc32)cc1
643 s	Cc1cc(C)c2c(N3CCCC3)nc(C(=O)NCc3cccs3)nc2n1
784 s	Cc1cccc(OCc2nc(-c3ccc(-c4csc(C5CC5)n4)cc3)no2)c1
582 s	COc1cccc(N2CCN(CC(=O)N3CCC(C(N)=O)CC3)CC2)c1
968 s	O=C(c1cn(-c2ccc(-c3nc(C4CC4)no3)cn2)cn1)N1CCc2ccccc2C1
912 s	COc1ccccc1CNC(=O)C1CN(C(=O)c2cccs2)CC12CCCCC2 (centres undefined)
700 s	Cc1cc(C)n2nc(SCC(=O)Nc3ccccc3)nc2n1
626 s	CCNc1nc(C)cc(N2CCN(C(=O)Nc3cc(OC)ccc3OC)CC2)n1
1040 s	CN1C(=O)COc2ccc(-c3csc(NC(=O)c4ccc(Br)cc4)n3)cc21
1050 s	CCN1C(=O)COc2ccc(-c3csc(NC(=O)C4CCCCC4)n3)cc21
775 s	O=C(CNS(=O)(=O)c1ccc2c(c1)OCCO2)N1CCOC(c2ccccc2)C1 (centres undefined)
672 s	O=C(Cn1cnc2nc(N3CCCC(C(=O)NC4CC4)C3)sc2c1=O)Nc1ccc(F)cc1 (centres undefined)
1020 s	O=C(Cn1cnc2c(-c3ccc(F)cc3)csc2c1=O)N1CCCc2ccccc21
920 s	O=C(c1c(F)cccc1Cl)N1CCCC(c2nnc(-c3ccccc3F)s2)C1 (centres undefined)
952 s	COc1ccc(-c2noc(C3CCCN3C(=O)c3ccccc3F)n2)cc1 (centres undefined)
604 s	Cn1c(CNC(=O)c2ccc3c(c2)N(S(C)(=O)=O)CC3)nc2ccccc21
654 s	CCCN1CCN(c2cc(C(=O)O)c3cc(NC(=O)c4cccc(Cl)c4)ccc3n2)CC1
875 s	COc1ccc(-c2nnc(-c3cc(S(=O)(=O)N4CCC(C(=O)O)CC4)ccc3Cl)o2)cc1
859 s	O=c1n(CCOc2ccc(F)cc2)nc2ccc(S(=O)(=O)N3CCCC3)cn12
953 s	COc1ccc(-c2nc3cnccn3c2Nc2cccc(C)c2C)cc1
735 s	COc1cc(NC(=O)COc2nc(C)nc3ccccc23)cc(OC)c1
